ChEMBL document CHEMBL2380212, “Synthesis, single crystal and antitumor activities of benzimidazole-quinazoline hybrids” (Bioorg Med Chem Lett, 2013)

Key:
[1] = n-Octanol-phosphate buffer partition coefficient, log P of the compound at pH 7.4 by shake flask method; format: physicochemical
MDA-MB-468 = experiment: Cytotoxicity against human MDA-MB-468 cells at 10 uM after 48 hrs by SRB assay; format: functional; conditions: MDA-MB-468, 48 h, read-out: GI
T47D = experiment: Cytotoxicity against human T47D cells at 10 uM after 48 hrs by SRB assay; format: functional; conditions: read-out: GI
MDA-MB-231 = experiment: Cytotoxicity against human MDA-MB-231 cells at 10 uM after 48 hrs by SRB assay; format: functional; conditions: MDA-MB-231, 48 h, read-out: GI
UO-31 = experiment: Cytotoxicity against human UO31 cells at 10 uM after 48 hrs by SRB assay; format: functional; conditions: UO-31, 48 h, read-out: GI
PC-3 = experiment: Cytotoxicity against human PC3 cells at 10 uM after 48 hrs by SRB assay; format: functional; conditions: PC-3, 48 h, read-out: GI
TK-10 = experiment: Cytotoxicity against human TK10 cells at 10 uM after 48 hrs by SRB assay; format: functional; conditions: TK-10, 48 h, read-out: GI
SN12C = experiment: Cytotoxicity against human SN12C cells at 10 uM after 48 hrs by SRB assay; format: functional; conditions: read-out: GI
ACHN = experiment: Cytotoxicity against human ACHN cells at 10 uM after 48 hrs by SRB assay; format: functional; conditions: read-out: GI
A498 = experiment: Cytotoxicity against human A498 cells at 10 uM after 48 hrs by SRB assay; format: functional; conditions: A498, 48 h, read-out: GI
786-0 = experiment: Cytotoxicity against human 786-0 cells at 10 uM after 48 hrs by SRB assay; format: functional; conditions: 786-0, 48 h, read-out: GI
SK-OV-3 = experiment: Cytotoxicity against human SKOV3 cells at 10 uM after 48 hrs by SRB assay; format: functional; conditions: SK-OV-3, 48 h, read-out: GI
NCI/ADR-RES = experiment: Cytotoxicity against human NCI/ADR-RES cells at 10 uM after 48 hrs by SRB assay; format: functional; conditions: read-out: GI
OVCAR-8 = experiment: Cytotoxicity against human OVCAR8 cells at 10 uM after 48 hrs by SRB assay; format: functional; conditions: OVCAR-8, 48 h, read-out: GI
OVCAR-5 = experiment: Cytotoxicity against human OVCAR5 cells at 10 uM after 48 hrs by SRB assay; format: functional; conditions: OVCAR-5, 48 h, read-out: GI
IGROV-1 = experiment: Cytotoxicity against human IGROV1 cells at 10 uM after 48 hrs by SRB assay; format: functional; conditions: IGROV-1, 48 h, read-out: GI
UACC-62 = experiment: Cytotoxicity against human UACC62 cells at 10 uM after 48 hrs by SRB assay; format: functional; conditions: UACC-62, 48 h, read-out: GI
SK-MEL-28 = experiment: Cytotoxicity against human SK-MEL-28 cells at 10 uM after 48 hrs by SRB assay; format: functional; conditions: SK-MEL-28, 48 h, read-out: GI
SK-MEL-5 = experiment: Cytotoxicity against human SK-MEL-5 cells at 10 uM after 48 hrs by SRB assay; format: functional; conditions: SK-MEL-5, 48 h, read-out: GI
M14 = experiment: Cytotoxicity against human M14 cells at 10 uM after 48 hrs by SRB assay; format: functional; conditions: M14, 48 h, read-out: GI
MDA-MB-435 = experiment: Cytotoxicity against human MDA-MB-435 cells at 10 uM after 48 hrs by SRB assay; format: functional; conditions: MDA-MB-435, 48 h, read-out: GI
U-251 = experiment: Cytotoxicity against human U251 cells at 10 uM after 48 hrs by SRB assay; format: functional; conditions: U-251, 48 h, read-out: GI
LOX IMVI = experiment: Cytotoxicity against human LOXIMVI cells at 10 uM after 48 hrs by SRB assay; format: functional; conditions: read-out: GI
SNB-75 = experiment: Cytotoxicity against human SNB75 cells at 10 uM after 48 hrs by SRB assay; format: functional; conditions: SNB-75, 48 h, read-out: GI
SNB-19 = experiment: Cytotoxicity against human SNB19 cells at 10 uM after 48 hrs by SRB assay; format: functional; conditions: SNB-19, 48 h, read-out: GI
SF-295 = experiment: Cytotoxicity against human SF295 cells at 10 uM after 48 hrs by SRB assay; format: functional; conditions: SF-295, 48 h, read-out: GI
SW-620 = experiment: Cytotoxicity against human SW620 cells at 10 uM after 48 hrs by SRB assay; format: functional; conditions: SW-620, 48 h, read-out: GI
KM12 = experiment: Cytotoxicity against human KM12 cells at 10 uM after 48 hrs by SRB assay; format: functional; conditions: KM12, 48 h, read-out: GI
HT-29 = experiment: Cytotoxicity against human HT-29 cells at 10 uM after 48 hrs by SRB assay; format: functional; conditions: HT-29, 48 h, read-out: GI
HCT-116 = experiment: Cytotoxicity against human HCT116 cells at 10 uM after 48 hrs by SRB assay; format: functional; conditions: HCT-116, 48 h, read-out: GI
HCC 2998 = experiment: Cytotoxicity against human HCC2998 cells at 10 uM after 48 hrs by SRB assay; format: functional; conditions: HCC 2998, 48 h, read-out: GI
COLO 205 = experiment: Cytotoxicity against human COLO205 cells at 10 uM after 48 hrs by SRB assay; format: functional; conditions: COLO 205, 48 h, read-out: GI
NCI-H522 = experiment: Cytotoxicity against human NCI-H522 cells at 10 uM after 48 hrs by SRB assay; format: functional; conditions: NCI-H522, 48 h, read-out: GI
NCI-H226 = experiment: Cytotoxicity against human NCI-H226 cells at 10 uM after 48 hrs by SRB assay; format: functional; conditions: NCI-H226, 48 h, read-out: GI
NCI-H23 = experiment: Cytotoxicity against human NCI-H23 cells at 10 uM after 48 hrs by SRB assay; format: functional; conditions: NCI-H23, 48 h, read-out: GI
HOP-62 = experiment: Cytotoxicity against human HOP62 cells at 10 uM after 48 hrs by SRB assay; format: functional; conditions: HOP-62, 48 h, read-out: GI
HOP-92 = experiment: Cytotoxicity against human HOP92 cells at 10 uM after 48 hrs by SRB assay; format: functional; conditions: HOP-92, 48 h, read-out: GI
[2] = Cytotoxicity against human EKVX cells at 10 uM after 48 hrs by SRB assay; format: functional; conditions: read-out: GI
SR = experiment: Cytotoxicity against human SR cells at 10 uM after 48 hrs by SRB assay; format: functional; conditions: read-out: GI
MOLT-4 = experiment: Cytotoxicity against human MOLT4 cells at 10 uM after 48 hrs by SRB assay; format: functional; conditions: MOLT-4, 48 h, read-out: GI
RPMI-8226 = experiment: Cytotoxicity against human RPMI8226 cells at 10 uM after 48 hrs by SRB assay; format: functional; conditions: RPMI-8226, 48 h, read-out: GI
HL-60(TB) = experiment: Cytotoxicity against human HL-60(TB) cells at 10 uM after 48 hrs by SRB assay; format: functional; conditions: HL-60, 48 h, read-out: GI

C=CCn1c(C)nc2ccc(Nc3nc(N4CCCC4)nc4ccccc34)cc21
logD [1]: 2.9
inhibition of growth at 10 µM (MDA-MB-468): < 10%
inhibition of growth at 10 µM (T47D): < 10%
inhibition of growth at 10 µM (MDA-MB-231): 58%
inhibition of growth at 10 µM (UO-31): 31.9%
inhibition of growth at 10 µM (PC-3): < 10%
inhibition of growth at 10 µM (TK-10): < 10%
inhibition of growth at 10 µM (SN12C): < 10%
inhibition of growth at 10 µM (ACHN): < 10%
inhibition of growth at 10 µM (A498): 28.5%
inhibition of growth at 10 µM (786-0): 24%
inhibition of growth at 10 µM (SK-OV-3): < 10%
inhibition of growth at 10 µM (NCI/ADR-RES): 16.7%
inhibition of growth at 10 µM (OVCAR-8): 15.9%
inhibition of growth at 10 µM (OVCAR-5): < 10%
inhibition of growth at 10 µM (IGROV-1): < 10%
inhibition of growth at 10 µM (UACC-62): < 10%
inhibition of growth at 10 µM (SK-MEL-28): 19.8%
inhibition of growth at 10 µM (SK-MEL-5): 37.6%
inhibition of growth at 10 µM (M14): 10.3%
inhibition of growth at 10 µM (MDA-MB-435): < 10%
inhibition of growth at 10 µM (U-251): < 10%
inhibition of growth at 10 µM (LOX IMVI): 97.5%
inhibition of growth at 10 µM (SNB-75): 16.3%
inhibition of growth at 10 µM (SNB-19): < 10%
inhibition of growth at 10 µM (SF-295): 16.3%
inhibition of growth at 10 µM (SW-620): 24.9%
inhibition of growth at 10 µM (KM12): 29.9%
inhibition of growth at 10 µM (HT-29): 94.3%
inhibition of growth at 10 µM (HCT-116): 80.3%
inhibition of growth at 10 µM (HCC 2998): 76.6%
inhibition of growth at 10 µM (COLO 205): < 10%
inhibition of growth at 10 µM (NCI-H522): < 10%
inhibition of growth at 10 µM (NCI-H226): < 10%
inhibition of growth at 10 µM (NCI-H23): 11.3%
inhibition of growth at 10 µM (HOP-62): < 10%
inhibition of growth at 10 µM (HOP-92): 18.6%
inhibition of growth at 10 µM [2]: < 10%
inhibition of growth at 10 µM (SR): 94.2%
inhibition of growth at 10 µM (MOLT-4): 50%
inhibition of growth at 10 µM (RPMI-8226): 45%
inhibition of growth at 10 µM (HL-60(TB)): 11.5%

C=CCn1c(C)nc2ccc(Nc3nc(N4CCN(C)CC4)nc4ccccc34)cc21
logD [1]: 1.03
inhibition of growth at 10 µM (MDA-MB-468): < 10%
inhibition of growth at 10 µM (T47D): 20.6%
inhibition of growth at 10 µM (MDA-MB-231): 22.8%
inhibition of growth at 10 µM (UO-31): 34.2%
inhibition of growth at 10 µM (PC-3): 25.9%
inhibition of growth at 10 µM (TK-10): < 10%
inhibition of growth at 10 µM (SN12C): < 10%
inhibition of growth at 10 µM (ACHN): < 10%
inhibition of growth at 10 µM (A498): < 10%
inhibition of growth at 10 µM (786-0): < 10%
inhibition of growth at 10 µM (SK-OV-3): < 10%
inhibition of growth at 10 µM (NCI/ADR-RES): < 10%
inhibition of growth at 10 µM (OVCAR-8): 23.4%
inhibition of growth at 10 µM (OVCAR-5): 16.5%
inhibition of growth at 10 µM (IGROV-1): < 10%
inhibition of growth at 10 µM (UACC-62): < 10%
inhibition of growth at 10 µM (SK-MEL-28): < 10%
inhibition of growth at 10 µM (SK-MEL-5): 18.3%
inhibition of growth at 10 µM (M14): < 10%
inhibition of growth at 10 µM (MDA-MB-435): < 10%
inhibition of growth at 10 µM (U-251): 10.2%
inhibition of growth at 10 µM (LOX IMVI): 18%
inhibition of growth at 10 µM (SNB-75): 17.6%
inhibition of growth at 10 µM (SNB-19): < 10%
inhibition of growth at 10 µM (SF-295): < 10%
inhibition of growth at 10 µM (SW-620): < 10%
inhibition of growth at 10 µM (KM12): 20.5%
inhibition of growth at 10 µM (HT-29): 42.6%
inhibition of growth at 10 µM (HCT-116): 33%
inhibition of growth at 10 µM (HCC 2998): < 10%
inhibition of growth at 10 µM (COLO 205): 23.6%
inhibition of growth at 10 µM (NCI-H522): < 10%
inhibition of growth at 10 µM (NCI-H226): 13.6%
inhibition of growth at 10 µM (NCI-H23): 19.2%
inhibition of growth at 10 µM (HOP-62): 11.3%
inhibition of growth at 10 µM (HOP-92): 42.4%
inhibition of growth at 10 µM (MOLT-4): 43.1%
inhibition of growth at 10 µM (RPMI-8226): 28.5%
inhibition of growth at 10 µM (HL-60(TB)): < 10%
